Data reported in patent publication US8389011B2, “Pharmaceutical compositions of cholesteryl ester transfer protein inhibitors” (Bend Research, Inc., priority 2000, dated 2013).

Experiment: In vitro dissolution test, microcentrifuge method, in model fasted duodenal solution (MFDS)
Type: physicochemical
Conditions: summary Table 48
Protocol: The compositions comprising the CETP inhibitor and concentration-enhancing polymer provide enhanced concentration of the dissolved CETP inhibitor in in vitro dissolution tests. It has been determined that enhanced drug concentration in in vitro dissolution tests in Model Fasted Duodenal (MFD) solution or Phosphate Buffered Saline (PBS) is a good indicator of in vivo performance and bioavailability. An appropriate PBS solution is an aqueous solution comprising 20 mM sodium phosphate (Na2HPO4), 47 mM potassium phosphate (KH2PO4), 87 mM NaCl, and 0.2 mM KCl, adjusted to pH 6.5 with NaOH. An appropriate MFD solution is the same PBS solution wherein additionally is present 7.3 mM sodium taurocholic acid and 1.4 mM of 1-palmitoyl-2-oleyl-sn-glycero-3-phosphocholine. In particular, a composition of the present invention can be dissolution-tested by adding it to MFD or PBS solution and agitating to promote dissolution.
A typical in vitro test to evaluate enhanced drug concentration in aqueous solution can be conducted by (1) adding with agitation a sufficient quantity of control composition, typically the CETP inhibitor alone, to the in vitro test medium, typically MFD or PBS solution, to achieve equilibrium concentration of the CETP inhibitor; (2) adding with agitation a sufficient quantity of test composition (e.g., the CETP inhibitor and polymer) in an equivalent test medium, such that if all the CETP inhibitor dissolved, the theoretical concentration of CETP inhibitor would exceed the equilibrium concentration of the CETP inhibitor by a factor of at least 10, and preferably a factor of at least 100; and (3) comparing the measured MDC and/or aqueous concentration versus time AUC of the test composition in the test medium with the equilibrium concentration, and/or the aqueous concentration versus time AUC of the control composition. In conducting such a dissolution test, the amount of test composition or control composition used is an amount such that if all of the CETP inhibitor dissolved the CETP inhibitor concentration would be at least 10-fold and preferably at least 100-fold that of the equilibrium concentration. Indeed, for some extremely insoluble CETP inhibitors, in order to identify the MDC achieved it may be necessary to use an amount of test composition such that if all of the CETP inhibitor dissolved, the CETP inhibitor concentration would be 10,000-fold or even more, that of the equilibrium concentration of the CETP inhibitor.
The concentration of dissolved CETP inhibitor is typically measured as a function of time by sampling the test medium and plotting CETP inhibitor concentration in the test medium vs. time so that the MDC can be ascertained. The MDC is taken to be the maximum value of dissolved CETP inhibitor measured over the duration of the test.
To avoid large CETP inhibitor particulates which would give an erroneous determination, the test solution is either filtered or centrifuged. “Dissolved CETP inhibitor” is typically taken as that material that either passes a 0.45 μm syringe filter or, alternatively, the material that remains in the supernatant following centrifugation. Filtration can be conducted using a 13 mm, 0.45 μm polyvinylidine difluoride syringe filter sold by Scientific Resources under the trademark TITAN®. Centrifugation is typically carried out in a polypropylene microcentrifuge tube by centrifuging at 13,000 G for 60 seconds. Other similar filtration or centrifugation methods can be employed and useful results obtained. For example, using other types of microfilters may yield values somewhat higher or lower (±10-40%) than that obtained with the filter specified above but will still allow identification of preferred dispersions. […]

In the case of `CCOC(=O)N1c2ccc(C(F)(F)F)cc2[C@@H](N(Cc2cc(C(F)(F)F)cc(C(F)(F)F)c2)C(=O)OC)C[C@H]1CC` [Control 2, [2R,4S]4-[(3,5-bis-trifluoromethyl-benzyl)-methoxycarbonyl-amino]-2-ethyl-6-trifluoromethyl-3,4-dihydro-2H-quinoline-1-carboxylic acid ethyl ester], the AUC90 (AUC through 90 min) was less than 88 min-μg/ml and the “Cmax, 90” value (maximum Drug 2 concentration through 90 min) was less than 1000 ng/mL.
